The record followed here is ChEMBL document CHEMBL3507680, “University of Dundee, Gates Library screen for HepG2 cell viability”.

A short description of the data set: Human HepG2 cell viability assay in 384 well format. It counts as toxicity, cell-based. Set-up: dose 125 nL, time 70.5 hour; concentration not given beside the values. Conditions: HepG2 cells, read-out: Inhibition.

As to `Cn1cc(CCC(=O)N2C[C@@H]3CC[C@H](C2)N(Cc2ccccn2)C3)cn1`, the cytotoxicity at 70.5 h was -14%.
As for `CSCC1CCN(c2nc(N)ncc2C)CC1`, the figure is -9.1%.
For `CCc1oc(C(=O)NCCSc2ncn[nH]2)cc1CN1CCCC1` the value was -9.51%; for `CC(C)Oc1cc(N2CC[C@H](CO)[C@@H](O)C2)nc(N)n1`, -8.74%.
As for `CCCN1CCC(CC(=O)NCCc2nc(C)cc(C)n2)CC1`, the figure is -4.92%; as for `CCn1ncnc1C(C)NC(=O)CC1CCN(C(C)C)CC1` (configuration not stated), 30%; as for `Cc1ccc(C(C(=O)O)N(C)CCN2CCOCC2)c(F)c1` (configuration not stated), -9.66%.
With `CCC(NC(=O)C1CCN(C(=O)C2CC2)CC1)c1cn2cccnc2n1` (configuration not stated), the cytotoxicity at 70.5 h was -8.35%.
For `CN1C(=O)[C@H]2CC[C@@H]1CN(C(=O)c1csc(Cc3ccccc3)n1)C2` the value was -11.4%.
In the case of `CN(C)S(=O)(=O)N1CCCC(c2nccn2Cc2cccnc2)C1` (configuration not stated), the cytotoxicity at 70.5 h was -4.26%.
Take `O=C(CCCN1CCCCC1)N1CCN(C(=O)c2nc[nH]n2)CC1`: the cytotoxicity at 70.5 h is -3.03%.
As for `CN(CCCc1cnn(C)c1)C(=O)C1CCCN(C2CCCC2)C1` (configuration not stated), the figure is 7.47%; as for `CNc1ncc(CN(C)C(=O)c2ccccc2C2CCNC2)cn1` (configuration not stated), 1.83%; as for `CN(Cc1ncnn1C1Cc2ccccc2C1)C1CCS(=O)(=O)C1` (configuration not stated), -2.74%.
For `COCC(=O)N1CCCN(C(=O)C2Cc3ccccc3CN2C)CC1` (configuration not stated) the value was 11.5%; for `Cc1cc(C(F)(F)F)nc(CNC(=O)CCCN2CCCCC2)n1`, -2.62%; for `O=C(c1cc(Cl)ccc1OC1CCN(C2CCCC2)CC1)N1CC(O)C1`, 11.8%.
As for `COc1cccc(-n2cc(CN(C)C(=O)c3cc[nH]n3)cn2)c1`, the figure is -6.6%; as for `CNC(=O)CCCNc1cc(C)nc2cc(C)nn12`, 5.3%; as for `CCC(CO)N(Cc1ccccc1C)Cc1ccccc1C(=O)O` (configuration not stated), -2.15%.
As to `Cc1ccc(C#N)c(N2CCC3(CCCN(C4CCOCC4)C3=O)C2)n1` (configuration not stated), the cytotoxicity at 70.5 h was -1.26%.
`O=c1[nH]c2cc3c(cc2cc1CN1CCCC1c1ccccn1)OCO3` (configuration not stated): the cytotoxicity at 70.5 h is -4.33%.
Consider `CC(=O)NC1CCN(c2nc(N(C)C)nc3c2CCCC3)CC1`, for which the cytotoxicity at 70.5 h was -1.98%.
Regarding `c1cc(CN2CCCC2)cc(-n2ccnc2-c2ccncc2)c1`, the cytotoxicity at 70.5 h came out at 0.243%.
As to `COCCN(C)C[C@@H]1CN(c2nc(C)cc(C)n2)C[C@@H]1CO`, the cytotoxicity at 70.5 h stood at 1.4%.
For `CC(C)S(=O)(=O)N1CCCC(c2cccc(C(=O)O)c2)C1` (configuration not stated) the value was -10.1%; for `N[C@@H]1c2ccccc2C2(CCN(C(=O)c3ccc(=O)[nH]c3)CC2)[C@H]1O`, -6.66%.
On to `Cc1nc(CC2CCN(Cc3ccc(CCC(C)(C)O)cc3)CC2)no1`, for which the cytotoxicity at 70.5 h turned out to be 13.1%.
As for `O=C(O)CNc1cc(-c2cc(C3CC3)ncn2)c2cc[nH]c2n1`, the figure is 0.922%.
For the compound `CN(CCc1cnn(C)c1)C(=O)Cn1c(=O)[nH]c2ccccc21`, the cytotoxicity at 70.5 h was -6.43%.
For `Cn1cc(Cl)c(CN2CCCC(Cn3cc(CO)nn3)C2)n1` (configuration not stated), the cytotoxicity at 70.5 h was -6.23%.
As for `O=C(O)C1(Cc2ccc(F)cc2)CCCN(Cc2ccncc2)C1` (configuration not stated), the figure is 4.55%; as for `OCCC1CN(c2ncnc3[nH]cnc23)CCN1Cc1ccccc1` (configuration not stated), -3.48%.
For `COCC(c1ccccn1)N(C)C(=O)c1cc(-c2ccc(O)cc2)n[nH]1` (configuration not stated) the value was -1.31%.
As for `COc1ccccc1-n1cc(C(=O)NCCCn2ccnn2)cn1`, the figure is -8.35%.
Consider `COc1cccc(OCC2CCCN(C(=O)c3ccc(N)nc3)C2)c1` (configuration not stated), for which the cytotoxicity at 70.5 h was -11.6%.
For `c1cc2c(cc1Cn1cc(C3CCOC3)nn1)OCO2` (configuration not stated) the value was -16.1%; for `CCn1c(C2CCN(C(=O)COCC(F)(F)C(F)F)CC2)n[nH]c1=O`, -6.79%.
As for `Cc1nc(CC(=O)N2CCC3(CC2)CC(=O)N(CC2CCCO2)C3)cs1` (configuration not stated), the figure is -3.04%; as for `Cc1cccc(OC2CN(C(=O)C3CC(=O)N(C4CC4)C3)C2)c1` (configuration not stated), 4.04%.
As for `CCC[C@H]1CN(S(C)(=O)=O)C[C@@H]1NC(=O)c1ccc(COC)cc1`, the figure is 0.361%.
As to `CCc1ccccc1CN1CC[C@@]2(O)CCN(S(=O)(=O)N(C)C)C[C@H]2C1`, the cytotoxicity at 70.5 h is -3.87%.
As for `Cc1ccc(OCC2CCCN(c3cc(C(N)=O)ccn3)C2)cc1` (configuration not stated), the figure is 4.54%; as for `CC(C)(CN1CCC2(CCNCC2)CC1)N1CCOCC1`, -3.64%.
Turning to `Cc1cc(C)c2[nH]c(C(=O)NCCN3CCNC3=O)c(C)c2c1`, the cytotoxicity at 70.5 h is -5.43%.
Take `CC(=O)N1CCN(Cc2ccc3c(c2)OCCO3)CC(O)C1` (configuration not stated): the cytotoxicity at 70.5 h is -10.7%.
As for `Cn1cc(CN(C/C=C/c2ccccc2)C2CC2)cn1`, the figure is -8.38%; as for `Cc1c(-c2ccccc2)ncn1CC(c1cccnc1)N1CCOCC1` (configuration not stated), -2.03%; as for `COc1cc(CN2CC[C@@H](N3CCCCCC3)[C@H](O)C2)cc(Cl)c1OC`, -4.33%.
Consider `COC[C@]1(O)CCN(C2CCN(c3ccc(F)c(F)c3)CC2)CC1(C)C`, for which the cytotoxicity at 70.5 h is 22.6%.
On to `Cc1ccc(CN2C(=O)OCC2CO)c2ccccc12` (configuration not stated), for which the cytotoxicity at 70.5 h is -6.41%.
For `CN(Cc1nc2ccccc2c(=O)[nH]1)C[C@@H]1CCCN2CCCC[C@H]12` the value was -2.89%; for `O=C(NCc1noc(C2CCCO2)n1)c1cn2ccsc2n1` (configuration not stated), -9.32%.
As for `CCC[C@H]1CN(C(=O)Cn2ccccc2=O)C[C@@H]1NS(C)(=O)=O`, the figure is -1.15%.
For `CCN(Cc1ccncc1)Cc1c[nH]nc1-c1ccc(F)cc1`, the cytotoxicity at 70.5 h is -6.51%.
Turning to `CN(C)C(=O)CN1CCCN(CC2CCOc3ccccc3C2)CC1` (configuration not stated), the cytotoxicity at 70.5 h was -11.2%.
For `CN1CCN(C)C2(CCN(Cc3ccc(C4CCCCO4)o3)CC2)C1` (configuration not stated), the cytotoxicity at 70.5 h was -1.75%.
For `CCC(C(=O)NCc1csc(N2CCOCC2)n1)n1cccn1` (configuration not stated) the value was -4.73%; for `CCCc1nnc(C(=O)N(C)Cc2cnc3ccccn23)o1`, 33.7%; for `CC(O)CCn1ccc2[nH]c(=O)c(C#N)cc2c1=O` (configuration not stated), 4.38%.
As for `C[C@@H]1CN(CCOc2ccc(Cl)cc2)CC[C@@]1(O)C1CCOCC1`, the figure is 7.29%; as for `CCCC1(CO)CCCN(C(=O)CNC(N)=O)C1` (configuration not stated), -28.7%; as for `Cn1c(-c2ccccc2Cl)nc2cc(C(=O)NCCOCCO)cnc21`, -6.61%.
`COc1ccc(Cl)cc1C(C(=O)O)N1CCSCC1` (configuration not stated): the cytotoxicity at 70.5 h is -3.65%.
For `CC(=O)N[C@@H]1CN(C(=O)c2ccc[nH]2)C[C@H]1c1ccc(C)o1` the value was 0.0626%; for `Cc1nc(C(C)N(C)Cc2nc(CCC(C)C)no2)c(C)s1` (configuration not stated), 0.293%.
On to `Cc1ccccc1N1CCN(c2ccncn2)C(C)C1` (configuration not stated), for which the cytotoxicity at 70.5 h was -2.86%.
As for `COCC(NC(=O)c1cc(NC(C)=O)ccc1Cl)c1ccnn1C` (configuration not stated), the figure is -1.93%.
For `OCc1ccc(CN2CCC(n3cc(-c4ccc(F)cc4)nn3)CC2)o1` the value was -8.09%; for `COc1ccc(CN2CCN(CC3CC3)[C@@H]3CS(=O)(=O)C[C@@H]32)cc1O`, -2.14%.
For `CN(Cc1ccco1)C(=O)[C@@]12CNC[C@@H]1CN(C1CCCC1)C2` the value was -23%; for `CN(C)C(=O)N1CCCC(C(=O)N(C)Cc2cnc(N)nc2)C1` (configuration not stated), -10.7%; for `CNC(=O)[C@@H]1C[C@H](n2cc(-c3ccc(Cl)cc3)nn2)CN1`, -3.41%.
Regarding `N#Cc1cccc(N2CCCC(CO)(Cc3ccccc3F)C2)n1` (configuration not stated), the cytotoxicity at 70.5 h came to 20.1%.
As to `CCNC(=O)[C@@H]1C[C@H](N)CN1c1cc(C(F)(F)F)nc(N(C)C)n1`, the cytotoxicity at 70.5 h turned out to be 37.1%.
For `Cc1ccc(-c2nn(-c3cccc(F)c3)cc2CN(C)CCO)o1` the value was -4.83%; for `Cc1cccc2c1nc(CCO)n2-c1ccc(NS(C)(=O)=O)nc1`, -8.44%.
For `CCNC(=O)[C@@H]1C[C@@H](n2cc(CN(CC)CC)nn2)CN1` the value was -13.5%.
For `CN(C)CCN(C)C[C@@H]1CN(C(=O)NC2CCCC2)C[C@@H]1CO` the value was -8.45%.
Consider `O=C(Nc1ccc(-c2nc3c([nH]2)CCNC3)cc1)N1CCCC1`, for which the cytotoxicity at 70.5 h was -15.7%.
For `CN1CC2(CCCN(Cc3cccc(CCN)c3)C2)OC1=O` (configuration not stated) the value was 2.55%; for `COC(=O)NCC(=O)N1CCC(Oc2cccc(C)c2)CC1`, -5.33%; for `O=C(O)C1(n2ccc(-c3ccco3)n2)CCN(Cc2cccnc2)CC1`, -4.45%.
As for `Cc1nc(C(C)C)cc(N2CCC3(CCC(=O)N(CC4CC4)C3)CC2)n1`, the figure is -11%; as for `CN(C)c1ccccc1C(=O)N1CCOC2(CNCCOC2)C1` (configuration not stated), -2.92%.
In the case of `C[C@@H]1CN(CCCOc2ccc(F)cc2)CC[C@@]1(O)C1CCOCC1`, the cytotoxicity at 70.5 h turned out to be 2.59%.
`O=C(CCCN1CCCCC1)NC(C(=O)O)c1ccc(Cl)cc1` (configuration not stated): the cytotoxicity at 70.5 h is -5.87%.
For `Cc1nc(N(C)C/C=C/c2ccccc2)c2cnn(C)c2n1` the value was -5.71%; for `COCC[C@]1(O)CCN(Cc2nc(C)cs2)C[C@H]1C`, 15.3%.
Turning to `NC(=O)c1cccc(CC2CCN(C(=O)Cn3cnnn3)C2)c1` (configuration not stated), the cytotoxicity at 70.5 h was -10.5%.
`Cc1cccc(C(C(=O)N(C)CCc2cn[nH]c2)N(C)C)c1` (configuration not stated): the cytotoxicity at 70.5 h was -8.71%.
For `CN(CCc1ccccn1)C(=O)c1ccccc1F` the value was -4.18%; for `Cc1ccc(F)c(OC2(C(=O)O)CCN(C(=O)c3ccco3)CC2)c1`, -7.46%; for `O=C(CCCN1CCCCC1)N1CCN(C(=O)c2ccc[nH]2)CC1`, 3.29%.
For `Cc1cccnc1CC(C)NC1CCSCC1` (configuration not stated) the value was -3.02%; for `CCN1CCN(Cc2nc(Cc3ccccc3)n[nH]2)CC1`, -5.11%.
For `CCNc1ncc(C(=O)N2CCOC(CCCc3ccccc3)C2)cn1` (configuration not stated) the value was 14.5%.
